# “Also recorded” adds a separate entry of the source.
# Assays:
# [1] = Plasma pharmacokinetics in healthy volunteers; assay type: in vivo, human; settings: 15 mg QD Day 1 vs Day 7; 15 mg and 25 mg studies
# Protocol: Forty, healthy adult, non-tobacco using men and women were enrolled in the study. A 15 mg Formula (II) dose (1×15 mg capsule) was administered once daily (QD) to each subject for 7 consecutive days (Days 1 to 7) with a washout period (6 days). PD blood samples were collected from each subject before dosing on Day 1, throughout the study, and up to 144 hours after dosing on Day 7 to characterize Formula (II) PD effects. PK sampling for Formula (II) was also collected before dosing on Day 1, throughout the study, and for 24 hours after dosing on Day 7. Additionally, potential Formula (II) safety issues were monitored through physical examination, vital sign measurements, 12 lead electrocardiograms (ECGs), AEs and clinical laboratory tests.
# The mean measured plasma concentration of Formula (II) versus time data (PK data) and mean occupancy of BTK by Formula (II) (PD data) were fitted with biophase compartment PK and PD models, respectively to enable prediction of PK and PD for different doses, dose regimens and dose durations. The biophase compartment PK model used to fit Formula (II) concentration versus time data is depicted in FIG. 1(A). The model is a naïve, mean data, two-compartment PK model with a delay d(1,3) for oral absorption. Fitting (optimization) was accomplished via weighed least squares. […]
# BTK [2] = target: T1, BTK (Canis lupus familiaris, UniProt A0A8I3P3Z9); experiment: BTK target occupancy in peripheral B-cells and lymph node fine needle aspirates of dogs with spontaneous lymphoma; assay type: in vivo, dog
# T1 construct: Purified peripheral B-cells and FNA samples were snap-frozen for measurement of BTK target occupancy; from tissue; host or cells: peripheral blood CD21+ B cells and lymph node fine needle aspirates of companion dogs with spontaneous lymphoma, dosed in vivo
# Protocol: Dogs were administered Formula (II) orally once daily and evaluations occurred every 7 days for the first 4 weeks of the study, then every 14 days thereafter. PBMCs and lymph node fine needle aspirates (lymphoma patients only) were obtained for PD analysis on day 0 at time 0 hr and 3 hr, and again at pre-dose (Cmin) on day 7 of drug administration. In each cohort, PK analysis was performed in 2 dogs on day 14 of the study consisting of blood sampling at 0, 0.5, 1, 2, 3, 4, 6, 8, 12, and 24 hr following drug administration.
# Peripheral blood mononuclear cells (PBMCs) were isolated from blood and the CD21+ B-cells were enriched by positive magnetic selection. For fine needle aspiration (FNA) samples, erythrocytes were lysed with ammonium chloride lysis buffer. Purified peripheral B-cells and FNA samples were snap-frozen for measurement of BTK target occupancy. BTK target occupancy was measured using an ELISA with anti-BTK as a capture antibody and a biotinylated active site probe for BTK, followed by streptavidin-HRP as a detection reagent. The ex vivo incubation with Formula (II) provided a baseline signal for each sample. BTK occupancy in the B cell lysates from peripheral B-cells and lymph node FNA preparations was calculated as a percentage of the control after correction for baseline chemoluminescence. All samples were run in quadruplicate.
# BTK [3] = target: T2, BTK (Homo sapiens, UniProt Q06187); experiment: BTK target occupancy in CD5+/CD19+ tumor cells of relapsed/refractory CLL patients; assay type: in vivo
# Protocol: Peripheral blood samples were obtained over time and BTK target occupancy was evaluated using a BTK active-site specific probe in an ELISA assay.
# [4] = Plasma pharmacokinetics in CLL patients; assay type: in vivo; settings: human, oral administration
# From the text: In this indication, the rapid resynthesis of BTK in the tumor cells in the CLL cell compartment is observed as a steeper rate of decline in the percentage of BTK sites occupied by Formula (II), compared with what has been observed in normal peripheral blood cells of healthy volunteers (compare linear slope estimates of FIG. 25 with FIG. 34).
# BTK [5] = target: T2, BTK; experiment: p-BTK after ex vivo BCR stimulation in CD19+/CD5+ CLL tumor cells (phospho-flow cytometry); settings: CLL patients on oral treatment
# [6] = 3 hr after administration, all cohorts
# T1 sequence (A0A8I3P3Z9 1-664): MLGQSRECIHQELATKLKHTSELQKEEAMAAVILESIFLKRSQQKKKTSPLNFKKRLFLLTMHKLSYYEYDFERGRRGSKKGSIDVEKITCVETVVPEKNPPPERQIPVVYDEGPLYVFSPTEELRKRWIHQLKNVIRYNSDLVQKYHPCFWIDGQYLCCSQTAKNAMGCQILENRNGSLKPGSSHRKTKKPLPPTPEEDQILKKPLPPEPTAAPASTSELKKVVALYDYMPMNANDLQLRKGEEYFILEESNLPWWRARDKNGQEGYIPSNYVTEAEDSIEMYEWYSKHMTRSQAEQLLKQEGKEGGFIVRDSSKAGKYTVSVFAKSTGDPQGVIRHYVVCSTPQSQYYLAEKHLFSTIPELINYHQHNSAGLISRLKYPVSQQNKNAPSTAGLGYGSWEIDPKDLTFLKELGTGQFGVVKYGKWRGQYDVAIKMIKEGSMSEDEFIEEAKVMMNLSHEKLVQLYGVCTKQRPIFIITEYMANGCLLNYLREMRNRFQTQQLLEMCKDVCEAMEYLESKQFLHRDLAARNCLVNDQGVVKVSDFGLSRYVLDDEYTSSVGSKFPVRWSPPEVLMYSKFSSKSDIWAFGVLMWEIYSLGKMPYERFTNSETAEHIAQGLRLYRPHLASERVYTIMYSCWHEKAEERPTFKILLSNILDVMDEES
# T2 sequence (Q06187 whole entry): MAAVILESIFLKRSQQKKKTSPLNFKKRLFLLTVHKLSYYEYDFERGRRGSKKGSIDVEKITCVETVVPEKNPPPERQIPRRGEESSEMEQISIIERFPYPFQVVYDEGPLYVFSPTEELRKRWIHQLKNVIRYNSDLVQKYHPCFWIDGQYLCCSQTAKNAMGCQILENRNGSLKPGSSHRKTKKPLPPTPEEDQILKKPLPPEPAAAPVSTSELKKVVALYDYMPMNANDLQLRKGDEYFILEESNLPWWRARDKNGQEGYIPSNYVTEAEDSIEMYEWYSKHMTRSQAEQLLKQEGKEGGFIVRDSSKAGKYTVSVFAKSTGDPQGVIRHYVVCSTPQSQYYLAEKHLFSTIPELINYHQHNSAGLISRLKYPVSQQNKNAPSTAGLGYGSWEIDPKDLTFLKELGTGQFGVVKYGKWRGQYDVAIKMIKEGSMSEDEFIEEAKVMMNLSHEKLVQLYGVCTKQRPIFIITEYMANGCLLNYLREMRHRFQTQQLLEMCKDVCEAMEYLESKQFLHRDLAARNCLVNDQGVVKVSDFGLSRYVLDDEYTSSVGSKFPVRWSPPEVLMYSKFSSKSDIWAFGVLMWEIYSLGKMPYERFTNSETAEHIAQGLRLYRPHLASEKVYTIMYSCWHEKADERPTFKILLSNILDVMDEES
smiles,measurement,setting,value
"CC#CC(=O)N1CCC[C@H]1c1nc(-c2ccc(C(=O)Nc3ccccn3)cc2)c2c(N)nccn12 [Formula (II), (S)-4-(8-amino-3-(1-(but-2-ynoyl)pyrrolidin-2-yl)imidazo[1,5-a]pyrazin-1-yl)-N-(pyridin-2-yl)benzamide]",accumulation or change in PK after repeat dosing,[1],no apparent accumulation; also recorded: little to no accumulation or change in PK after repeat dosing
same,BTK occupancy in lymph node FNAs,BTK [2]; [6],> 90%
same,BTK occupancy in peripheral B-cells,BTK [2]; [6],≥ 90%
same,BTK occupancy in peripheral blood sample,"BTK [2]; day 7 pre-dose, steady state (24 hr QD or 12 hr BID after dose)",Full BTK occupancy
same,BTK occupancy in tumor bearing lymph nodes,BTK [2]; pre-dose Day 7,82-88%
same,percentage BTK occupancy,BTK [3]; 100 mg BID compared with any QD dosing schedule,higher percentage BTK occupancy
same,resynthesis of BTK in CLL tumor cells,BTK [3]; 100 mg QD compared with 100 mg BID,more rapid than after 100 mg BID dosing
same,BTK occupancy in peripheral blood compartment,"BTK [3]; 3-4 hours post dose, all treated subjects",full BTK occupancy
same,BTK target occupancy in circulating tumor cells throughout the dosing interval,"BTK [3]; total daily doses above 200 mg, once-daily or twice-daily",> 90%
same,Tmax,[4],~1 h
same,BCR-mediated signaling through BTK (p-BTK after ex vivo BCR stimulation),BTK [5],significantly inhibited; also recorded: decreased BTK activation

# Reference: patent US20170143712A1, “Methods of Treating Cancers, Immune and Autoimmune Diseases, and Inflammatory Diseases Based on BTK Occupancy and BTK Resynthesis Rate” (Acerta Pharma B.V., priority 2014, published 2017)
